Measurements from publication PMC12037858 (Scientific Reports, 2025).

Target: Fascin (Homo sapiens, UniProt Q16658)
Experiment: Image-based F-actin bundling assay
Format: biochemical
Conditions: 400 µM compound

- Inhibition of fascin-mediated F-actin bundle formation: prevents fiber formation
Structure (SMILES): O=C(Nc1ccncc1)c1cn(Cc2ccc(Cl)c(Cl)c2)c(=O)c2cnn(C3CCNCC3)c12 [BDP-13176]
